Assay results as given in patent US11064699B2, “Condensed heterocyclic compound or salt thereof, agricultural and horticultural insecticide comprising the compound or the salt, and method for using the insecticide” (Nihon Nohyaku Co., Ltd., priority 2017, dated 2021).

Experiments:
[1] = tested on: Plutella xylostella; assay: Insecticidal test on Plutella xylostella (dip of Chinese cabbage seedlings with laid eggs); format: in vivo; conditions: 144 h, seedlings with laid eggs dipped about 30 seconds, 25° C., 6 days after dip treatment, criteria of Test Example 2, read-out: insecticidal efficacy (corrected mortality rate), activity level
Description: Insecticidal Test on Plutella xylostella
Adults of Plutella xylostella were released onto Chinese cabbage seedlings and allowed to lay eggs thereon. At 2 days after the release of the adults, the Chinese cabbage seedlings with laid eggs were dipped for about 30 seconds in agrochemical dispersions diluted to 500 ppm, each of which contained a different condensed heterocyclic compound represented by the general formula (1) of the present invention as an active ingredient. After air-dried, the seedlings were kept in a thermostatic chamber at 25° C. At 6 days after the dip treatment, the number of hatched larvae per plot was counted, the mortality rate was calculated according to the formula shown below, and the insecticidal efficacy was evaluated according to the criteria of Test Example 2. This test was conducted in triplicate using 10 adults of Plutella xylostella per plot. Corrected mortality rate (%)=100×(Number of hatched larvae in a non-treatment plot−Number of hatched larvae in a treatment plot)/Number of hatched larvae in a non-treatment plot [Math. 3]

[2] = tested on: Laodelphax striatellus; assay: Insecticidal test on Laodelphax striatellus (rice seedling dip); format: in vivo; conditions: 192 h, rice seedlings dipped 30 seconds, 3rd-instar larvae, 8 days after inoculation, read-out: insecticidal efficacy (corrected mortality rate), activity level
Description: Insecticidal Test on Laodelphax striatellus
The condensed heterocyclic compounds represented by the general formula (1) of the present invention or salts thereof were separately dispersed in water and diluted to 500 ppm. Rice plant seedlings (variety: Nihonbare) were dipped in the agrochemical dispersions for 30 seconds. After air-dried, each seedling was put into a separate glass test tube and inoculated with ten 3rd-instar larvae of Laodelphax striatellus, and then the glass test tubes were capped with cotton plugs. At 8 days after the inoculation, the numbers of surviving larvae and dead larvae were counted, the corrected mortality rate was calculated according to the formula shown below, and the insecticidal efficacy was evaluated according to the criteria shown below. Corrected mortality rate (%)=100×(Survival rate in a non-treatment plot−Survival rate in a treatment plot)/Survival rate in a non-treatment plot [Math. 2] Corrected Mortality Rate A: the corrected mortality rate is 100%. B: the corrected mortality rate is 90 to 99%. C: the corrected mortality rate is 80 to 89%. D: the corrected mortality rate is 50 to 79%.

SMILES	mortality at 500 ppm [1]	mortality at 500 ppm [2]
CCS(=O)(=O)c1cc2ccc(C(F)(F)F)cc2nc1-c1nnc2cc(C(F)(F)C(F)(F)F)ncn12 [Compound 4-27, 3-(ethylsulfonyl)-2-(7-pentafluoroethyl)-[1,2,4]triazolo[4,3-c]pyrimidin-3-yl-7-(trifluoromethyl) quinoline]	100%	100%
CCS(=O)(=O)c1cc(-c2cccc(C(F)(F)F)c2)cnc1-c1nnc2cc(C(F)(F)F)ncn12 [Compound 2-36, 3-(3-(ethylsulfonyl)-5-(3-(trifluoromethyl)phenyl)pyridin-2-yl)-(7-trifluoromethyl)-[1,2,4]Triazolo[4,3-c]Pyrimidine]	100%	100%
